Test results reported in patent publication US11174232B2, “Substituted heterocyclyl derivatives as CDK inhibitors” (Aurigene Discovery Technologies Limited, priority 2015, dated 2021).

Target: CDK7/CycH/MNAT1 (Homo sapiens (Human), UniProt P50613)
Experiment: Biochemical Assay for CDK7 (TR-FRET kinase assay)
Conditions: 60 min pre-incubation with kinase, 1 mM ATP
Description: Biochemical Assay for CDK7:
The ability of compounds to inhibit CDK7 kinase activity was tested in a TR-FRET assay using 5 nM of CDK7/CycH/MNAT1 obtained from Invitrogen, USA. Test compounds were pre-incubated with the kinase at room temperature for 60 min. After the incubation, substrate mix [100 nM Ultra-light MBP (Perkin Elmer, USA) and 1 mM ATP (Sigma)] was added. The above reaction was stopped by the addition of 40 mM EDTA after 60 minutes of kinase reaction. 1 nM Eu-labelled antiphospho-MBP antibody [Perkin Elmer, USA] was added, mixed well and the fluorescence emission at 615 nm and 665 nm [excitation at 340 nm] was measured. The final DMSO concentration in the assay was 1%. For IC50 determination, appropriate concentrations were made by ⅓^rd serial dilutions of 10 mM DMSO stock solution of test compound. All the fluorescence measurements were made in a Victor 3 Multilabel Counter [Perkin Elmer, USA]. The IC50 was determined by fitting the dose response data to sigmoidal curve fitting equation using GraphPad Prism software V5. To identify compounds that inhibit CDK7 irreversibly, time depended inhibition studies were carried by pre-incubating compound with the enzyme at three time points (20, 60 and 180 min) and carrying out assay as described above.
The compounds were screened by the above mentioned assay procedure.

Chain of CDK7/CycH/MNAT1 (P50613 whole entry): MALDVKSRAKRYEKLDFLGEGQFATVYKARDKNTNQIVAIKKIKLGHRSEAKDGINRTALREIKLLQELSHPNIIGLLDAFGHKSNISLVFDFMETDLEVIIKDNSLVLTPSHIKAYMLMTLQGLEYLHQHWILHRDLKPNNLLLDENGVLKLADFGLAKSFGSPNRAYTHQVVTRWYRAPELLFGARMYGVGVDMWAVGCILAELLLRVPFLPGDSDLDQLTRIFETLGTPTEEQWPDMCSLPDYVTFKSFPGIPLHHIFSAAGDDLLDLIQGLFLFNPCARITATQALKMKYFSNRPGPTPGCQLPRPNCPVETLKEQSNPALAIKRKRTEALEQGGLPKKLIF
Chain of CDK7/CycH/MNAT1 (P51946 whole entry partner): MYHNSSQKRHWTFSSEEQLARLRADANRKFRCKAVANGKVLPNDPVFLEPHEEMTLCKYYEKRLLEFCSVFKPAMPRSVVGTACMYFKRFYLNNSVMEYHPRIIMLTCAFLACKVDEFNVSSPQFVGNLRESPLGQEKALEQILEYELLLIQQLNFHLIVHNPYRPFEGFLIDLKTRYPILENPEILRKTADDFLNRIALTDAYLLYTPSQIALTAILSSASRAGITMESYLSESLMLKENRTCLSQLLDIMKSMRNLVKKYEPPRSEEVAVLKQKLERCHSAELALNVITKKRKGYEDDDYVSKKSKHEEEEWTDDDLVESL
Chain of CDK7/CycH/MNAT1 (P51948 whole entry partner): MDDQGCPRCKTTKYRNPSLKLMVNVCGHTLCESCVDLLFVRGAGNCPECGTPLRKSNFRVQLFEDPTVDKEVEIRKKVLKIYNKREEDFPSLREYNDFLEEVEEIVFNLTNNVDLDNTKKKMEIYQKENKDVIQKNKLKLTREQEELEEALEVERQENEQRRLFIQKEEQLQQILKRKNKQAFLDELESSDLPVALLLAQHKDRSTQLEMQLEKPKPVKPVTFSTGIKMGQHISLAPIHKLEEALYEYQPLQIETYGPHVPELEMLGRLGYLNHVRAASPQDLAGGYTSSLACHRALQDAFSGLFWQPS

Compound	inhibition at 10 µM (10 μM compound)	IC50	% inhibition @ 10 μM (10 μM compound)
CC(C(=O)Nc1cc(C2CC2)[nH]n1)c1cccc(C2CCN(C(=O)/C=C/CN(C)C)CC2)c1 (stereo not drawn) [Compound 85, (E)-N-(5-cyclopropyl-1H-pyrazol-3-yl)-2-(3-(1-(4-(dimethylamino)but-2-enoyl)piperidin-4-yl)phenyl)propanamide]	74%	> 100 nM	
C=CC(=O)Nc1ccc(-c2cccc(C(C)C(=O)Nc3cc(C4CC4)[nH]n3)c2)cc1 (stereo not drawn) [Compound 18, N-(3′-(1-((5-cyclopropyl-1H-pyrazol-3-yl)amino)-1-oxopropan-2-yl)-[1,1′-biphenyl]-4-yl)acrylamide]	95%	> 100 nM	
CC(C(=O)Nc1cc(C2CC2)[nH]n1)c1cccc(-c2ccc(NC(=O)/C=C/CN3CCC(F)C3)c(F)n2)c1 (stereo not drawn) [Compound 64, (E)-N-(6-(3-(1-((5-cyclopropyl-1H-pyrazol-3-yl)amino)-1-oxopropan-2-yl)phenyl)-2-fluoropyridin-3-yl)-4-(3-fluoropyrrolidin-1-yl)but-2-enamide]	94%	25 to 100 nM	
CC(C(=O)Nc1cc(C2CC2)[nH]n1)c1cccc(-c2ccc(NC(=O)/C=C/CN3CCOCC3)nc2)c1 (stereo not drawn) [Compound 10, (E)-N-(5-(3-(1-((5-cyclopropyl-1H-pyrazol-3-yl)amino)-1-oxopropan-2-yl)phenyl)pyridin-2-yl)-4-morpholinobut-2-enamide]	99%	< 25 nM	
C=CC(=O)Nc1ccc(-c2cccc(C(C)C(=O)Nc3cc(C4CC4)[nH]n3)c2)c(C)c1 (stereo not drawn) [Compound 75, N-(3′-(1-((5-cyclopropyl-1H-pyrazol-3-yl)amino)-1-oxopropan-2-yl)-2-methyl-[1,1′-biphenyl]-4-yl)acrylamide]	78%	> 100 nM	
CC(C(=O)Nc1cc(C2CC2)[nH]n1)c1cccc(-c2cncc(NC(=O)/C=C/CN3CCCC3)n2)c1 (stereo not drawn) [Compound 92, (E)-N-(6-(3-(1-((5-cyclopropyl-1H-pyrazol-3-yl)amino)-1-oxopropan-2-yl)phenyl)pyrazin-2-yl)-4-(pyrrolidin-1-yl)but-2-enamide]	86%	25 to 100 nM	
CC(C(=O)Nc1cc(C2CC2)[nH]n1)c1cccc(-c2ccc(NC(=O)/C=C/CN3CCCC3)nc2)c1 (single isomer, unassigned) [Compound 53, (E)-N-(5-(3-(1-((5-cyclopropyl-1H-pyrazol-3-yl)amino)-1-oxopropan-2-yl)-phenyl)pyridin-2-yl)-4-(pyrrolidin-1-yl)but-2-enamide]		< 25 nM	100%
CC(C(=O)Nc1cc(C2CC2)[nH]n1)c1cccc(-c2ccc(NC(=O)/C=C/CN(C)C)c(F)n2)c1 (stereo not drawn) [Compound 38, (E)-N-(6-(3-(1-((5-cyclopropyl-1H-pyrazol-3-yl)amino)-1-oxopropan-2-yl)phenyl)-2-fluoropyridin-3-yl)-4-(dimethylamino)but-2-enamide]	94%	> 100 nM	
CC(C(=O)Nc1cc(C2CC2)[nH]n1)c1cccc(-c2ccc(NC(=O)/C=C/CN3CCOCC3)nc2F)c1 (stereo not drawn) [Compound 59, (E)-N-(5-(3-(1-((5-cyclopropyl-1H-pyrazol-3-yl)amino)-1-oxopropan-2-yl)phenyl)-6-fluoropyridin-2-yl)-4-morpholinobut-2-enamide]	99%	25 to 100 nM	
CC(C(=O)Nc1cc(C2CC2)n(C)n1)c1cccc(-c2ccc(NC(=O)/C=C/CN(C)C)cc2)c1 (stereo not drawn) [Compound 6, (E)-N-(3′-(1-((5-cyclopropyl-1-methyl-1H-pyrazol-3-yl)amino)-1-oxopropan-2-yl)-[1,1′-biphenyl]-4-yl)-4-(dimethylamino)but-2-enamide]	0%		
CC(C(=O)Nc1cc(C2CC2)[nH]n1)c1cccc(-c2ccc(NC(=O)/C=C/CN3CC[C@H](F)C3)c(F)c2)c1 (stereo partly drawn) [Compound 80, (E)-N-(3′-(1-((5-cyclopropyl-1H-pyrazol-3-yl)amino)-1-oxopropan-2-yl)-3-fluoro-[1,1′-biphenyl]-4-yl)-4-((S)-3-fluoropyrrolidin-1-yl)but-2-enamide]	95%	25 to 100 nM	
C=CC(=O)Nc1ccc(-c2cccc(C(C)C(=O)Nc3cc(C4CC4)[nH]n3)c2)c(OC)c1 (stereo not drawn) [Compound 73, N-(3′-(1-((5-cyclopropyl-1H-pyrazol-3-yl)amino)-1-oxopropan-2-yl)-2-methoxy-[1,1′-biphenyl]-4-yl)acrylamide]	91%	> 100 nM	
C=CC(=O)Nc1ccc(-c2cccc(C(C)C(=O)Nc3n[nH]c4ccccc34)c2)cc1 (stereo not drawn) [Compound 90, N-(3′-(1-((1H-indazol-3-yl)amino)-1-oxopropan-2-yl)-[1,1′-biphenyl]-4-yl)acrylamide]	83%	> 100 nM	
CC(C(=O)Nc1cc(C2CC2)[nH]n1)c1cc(-c2ccc(NC(=O)/C=C/CN(C)C)cc2)ccc1F (stereo not drawn) [Compound 5, (E)-N-(3′-(1-((5-cyclopropyl-1H-pyrazol-3-yl)amino)-1-oxopropan-2-yl)-4′-fluoro-[1,1′-biphenyl]-4-yl)-4-(dimethylamino)but-2-enamide]	80%	> 100 nM	
C=CC(=O)N1CCc2cc(-c3cccc(C(C)C(=O)Nc4cc(C5CC5)[nH]n4)c3)ccc21 (stereo not drawn) [Compound 76, 2-(3-(1-acryloylindolin-5-yl)phenyl)-N-(5-cyclopropyl-1H-pyrazol-3-yl)propanamide]	98%	< 25 nM	
CC(C(=O)Nc1cc(C2CCCC2)[nH]n1)c1cccc(-c2ccc(NC(=O)/C=C/CN(C)C)c(F)c2)c1 (stereo not drawn) [Compound 28, (E)-N-(3′-(1-((5-cyclopentyl-1H-pyrazol-3-yl)amino)-1-oxopropan-2-yl)-3-fluoro-[1,1′-biphenyl]-4-yl)-4-(dimethylamino)but-2-enamide]	96%	25 to 100 nM	
C=CC(=O)Nc1ccc(-c2cccc(C(C)C(=O)Nc3n[nH]c(C4CC4)c3C)c2)cc1 (stereo not drawn) [Compound 30, N-(3′-(1-((5-cyclopropyl-4-methyl-1H-pyrazol-3-yl)amino)-1-oxopropan-2-yl)-[1,1′-biphenyl]-4-yl)acrylamide]	28%	> 100 nM	
COC[C@@H]1CCCN1C/C=C/C(=O)Nc1ccc(-c2cccc(C(C)C(=O)Nc3cc(C4CC4)[nH]n3)c2)cn1 (stereo partly drawn) [Compound 70, (E)-N-(5-(3-(1-((5-cyclopropyl-1H-pyrazol-3-yl)amino)-1-oxopropan-2-yl)phenyl)pyridin-2-yl)-4-((S)-2-(methoxymethyl)pyrrolidin-1-yl)but-2-enamide]	81%	25 to 100 nM	
CC(C(=O)Nc1cc(C2CC2)[nH]n1)c1cccc(-c2ccc(NC(=O)/C=C/CN3CC[C@@H](F)C3)nc2)c1 (single isomer, unassigned) [Compound 50]	94%	< 25 nM	
CC(C)C(C(=O)Nc1cc(C2CC2)[nH]n1)c1cccc(-c2ccc(NC(=O)/C=C/CN(C)C)cn2)c1 (stereo not drawn) [Compound 36, (E)-N-(6-(3-(1-((5-cyclopropyl-1H-pyrazol-3-yl)amino)-3-methyl-1-oxobutan-2-yl)phenyl)pyridin-3-yl)-4-(dimethylamino)but-2-enamide]	98%	< 25 nM	
CC(C(=O)Nc1cc(C2CC2)[nH]n1)c1cccc(-c2ccc(NC(=O)/C=C/CN(C)C)cc2)c1 (stereo not drawn) [Compound 1, (E)-N-(3′-(1-((5-cyclopropyl-1H-pyrazol-3-yl)amino)-1-oxopropan-2-yl)-[1,1′-biphenyl]-4-yl)-4-(dimethylamino)but-2-enamide]	92%	25 to 100 nM	
CC(C(=O)Nc1cc(C2CC2)[nH]n1)c1cccc(-c2ccc(NC(=O)/C=C/Cn3ccnc3)nc2)c1 (stereo not drawn) [Compound 69, (E)-N-(5-(3-(1-((5-cyclopropyl-1H-pyrazol-3-yl)amino)-1-oxopropan-2-yl)phenyl)pyridin-2-yl)-4-(1H-imidazol-1-yl)but-2-enamide]	87%	25 to 100 nM	
C=CC(=O)NCc1ccc(-c2cccc(C(C)C(=O)Nc3cc(C4CC4)[nH]n3)c2)cn1 (stereo not drawn) [Compound 74, N-((5-(3-(1-((5-cyclopropyl-1H-pyrazol-3-yl)amino)-1-oxopropan-2-yl)phenyl)pyridin-2-yl)methyl)acrylamide]	79%	> 100 nM	
CC(C(=O)Nc1cc(C2CC2)[nH]n1)c1cccc(-c2ccc(NC(=O)/C=C/CN(C)C)cn2)c1 (stereo not drawn) [Compound 16, (E)-N-(6-(3-(1-((5-cyclopropyl-1H-pyrazol-3-yl)amino)-1-oxopropan-2-yl)phenyl)pyridin-3-yl)-4-(dimethylamino)but-2-enamide]	95%	25 to 100 nM	
CC(C(=O)Nc1n[nH]c2ccccc12)c1cccc(-c2ccc(NC(=O)/C=C/CN(C)C)cc2)c1 (stereo not drawn) [Compound 91, (E)-N-(3′-(1-((1H-indazol-3-yl)amino)-1-oxopropan-2-yl)-[1,1′-biphenyl]-4-yl)-4-(dimethylamino)but-2-enamide]	84%	> 100 nM	
C=CC(=O)Nc1ccc(-c2cccc(C(C)C(=O)Nc3cc(C(C)(C)C)[nH]n3)c2)cc1 (stereo not drawn) [Compound 88, N-(3′-(1-((5-(tert-butyl)-1H-pyrazol-3-yl)amino)-1-oxopropan-2-yl)-[1,1′-biphenyl]-4-yl)acrylamide]	62%	> 100 nM	
